The source of these data is patent US20060287251A1, “Combination therapy for glycaemic control” (priority 2003, published 2006).

The subject of experiment [1] is diet-induced obese (DIO) rats. Kind of experiment: Glycaemic control (OGTT) in diet-induced obese rats with impaired glucose tolerance. The format is in vivo, rat. The following applies: glutaminyl thiazolidine hydrochloride 60 mg/kg BID, Metformin 125 mg/kg BID.
Description: Selectively bred male rats, 5-6 weeks of age, displaying enhanced likelihood of developing diet-induced obesity (DIO) are selected from the breeding colony. A total of 40 DIO animals are included in the study.
Upon entry to the experiment, rats are housed individually (1 rat/cage) in a 12/12 light-dark cyldle (light from 0600-1800 h) with controlled temperature conditions (22-24° C.). […] After one week of acclimatisation, 24 h food and water intake and body-weight is measured gravimetrically twice weekly (in the morning between 8-10 am). After 3 weeks of HF feeding, average daily food consumption is calculated for all rats. The average food intake comprises a platform from which a scheduled feeding regime is implemented. […]
This test is carried out at 8:00 AM on days 6 and 42. […] Blood samples are taken from an indwelling arterial catheter and P-glucose is measured on automated analyser (Roche Diagnostics) at time points −60, −30, 0, 15, 30, 60, 120, and 180 min after oral administration of 1 g/kg glucose (using 1 g/ml dH2O). […] P-insulin is measured at time points: 0, 15, 30, 60, 120 using an ultra-sensitive ELISA (Shibayagi,Japan).
All rats are equipped with intra-arterial catheters at day −7. […] All blood samples are taken in EDTA Vacutainer tubes and plasma glucose is measured together with total Cholesterol and triacylglycerol. […]
The subject of the next experiment is Zucker (fa/fa) rats. Kind of experiment: Combination therapy of glutaminyl thiazolidine with other oral antidiabetics in Zucker (fa/fa) rats. The class given is in vivo, rat. The following applies: after 14 days subchronic medication; versus Control; GT 60 mg/kg b.w. b.i.d. oral. Here is the method:
Standard pelleted chow (ssniff®, Soest, Germany) and tap water acidified with HCl were allowed ad libitum. At the age of 12 weeks the animals (N=42) were divided in random order into six experimental groups to be medicated.
During the two weeks of medication morning blood glucose was measured before the 08:00 AM medication at Monday, Wednesday and Friday.
A second OGTT was performed after two weeks of medication (Day 15).

Consider `NC(=O)CC[C@H](N)C(=O)N1CCSC1` [glutaminyl thiazolidine], for which the oral glucose tolerance entry in experiment [1] is recorded as “improved oral glucose tolerance”. Further, the “glucose tolerance, OGTT-2” value with Zucker (fa/fa) rats is listed as “improved glucose tolerance”.
